Key:
Type in all cases: functional
Details in all cases: Oryctolagus cuniculus
Platelet [1] = assay: Inhibition of arachidonic acid-induced rabbit platelet aggregation at 100 ug/ml
Platelet [2] = assay: Inhibition of thrombin-induced rabbit platelet aggregation at 100 ug/ml
Platelet [3] = assay: Inhibition of collagen-induced rabbit platelet aggregation at 50 ug/ml
Platelet [4] = assay: Inhibition of collagen-induced rabbit platelet aggregation at 100 ug/ml
Platelet [5] = assay: Inhibition of arachidonic acid-induced rabbit platelet aggregation at 20 ug/ml
Platelet [6] = assay: Inhibition of collagen-induced rabbit platelet aggregation at 20 ug/ml
Platelet [7] = assay: Inhibition of platelet-activating factor-induced rabbit platelet aggregation at 100 ug/ml
Platelet [8] = assay: Inhibition of arachidonic acid-induced rabbit platelet aggregation at 50 ug/ml
Platelet [9] = assay: Inhibition of arachidonic acid-induced rabbit platelet aggregation at 10 ug/ml
Platelet [10] = assay: Inhibition of collagen-induced rabbit platelet aggregation at 10 ug/ml

Compound `COc1cc2c3c(cc4ccccc4c3c1O)NC2=O` [PIPEROLACTAM A] has an inhibition at 100 µg/mL (Platelet [1]) of 0%, an inhibition at 100 µg/mL (Platelet [2]) of 84.3% and an inhibition at 50 µg/mL (Platelet [3]) of 22.2%. The inhibition at 100 µg/mL (Platelet [4]) was 0%, the inhibition at 20 µg/mL (Platelet [5]) was 83.5% and the inhibition at 20 µg/mL (Platelet [6]) was 84.2%. For the same compound, the inhibition at 100 µg/mL (Platelet [7]) was 84.1% and the inhibition at 50 µg/mL (Platelet [8]) was 14.7%.
Work on `COc1c(OC)c(OC)c2c3c(cc4ccccc42)NC(=O)c13` [PIPEROLACTAM C] yielded an inhibition at 100 µg/mL (Platelet [1]) of 7.8%, an inhibition at 100 µg/mL (Platelet [2]) of 83.7% and an inhibition at 50 µg/mL (Platelet [3]) of 82%. For the same compound, the inhibition at 100 µg/mL (Platelet [4]) was 0%, the inhibition at 100 µg/mL (Platelet [7]) was 6.1% and the inhibition at 50 µg/mL (Platelet [8]) was 89.4%.
In the case of `COc1cc2c3c(cc4c(O)cccc4c3c1OC)NC2=O` [VELUTINAM], the inhibition at 100 µg/mL (Platelet [1]) is reported as 37.5%, the inhibition at 100 µg/mL (Platelet [2]) is reported as 92.1% and the inhibition at 50 µg/mL (Platelet [3]) is reported as 65.4%. For the same compound, the inhibition at 100 µg/mL (Platelet [4]) was 18.4%, the inhibition at 100 µg/mL (Platelet [7]) was 87.3% and the inhibition at 50 µg/mL (Platelet [8]) was 77.5%.
`COc1c(O)cc2c3c(cc4ccccc4c13)NC2=O` [ARISTOLACTAM AII] showed an inhibition at 100 µg/mL (Platelet [1]) of 86.3%, an inhibition at 100 µg/mL (Platelet [2]) of 90% and an inhibition at 100 µg/mL (Platelet [4]) of 82.5%. For the same compound, the inhibition at 100 µg/mL (Platelet [7]) was 78.3%.
`COc1c(O)cc2c3c(cc4ccccc4c13)NC(=O)C2=O` [NORARISTOLODIONE] was tested, and the inhibition at 100 µg/mL (Platelet [1]) was 65.8%, the inhibition at 100 µg/mL (Platelet [2]) was 88.7% and the inhibition at 50 µg/mL (Platelet [3]) was 72%. The inhibition at 100 µg/mL (Platelet [4]) was 40.6%, the inhibition at 20 µg/mL (Platelet [6]) was 84.7% and the inhibition at 100 µg/mL (Platelet [7]) was 82.5%.
For `CC(=O)Oc1ccccc1C(=O)O` [ASPIRIN], the inhibition at 100 µg/mL (Platelet [1]) was 0%, the inhibition at 100 µg/mL (Platelet [4]) was 87.8% and the inhibition at 100 µg/mL (Platelet [7]) was 90.4%.
In the case of `COc1cc2c3c(cc4ccc(O)cc4c3c1OC)NC2=O` [GONIOTHALACTAM], the inhibition at 100 µg/mL (Platelet [1]) is reported as 13.6%, the inhibition at 100 µg/mL (Platelet [2]) is reported as 89.8% and the inhibition at 10 µg/mL (Platelet [9]) is reported as 85.9%. It also gave an inhibition at 50 µg/mL (Platelet [3]) of 17.3%, an inhibition at 100 µg/mL (Platelet [4]) of 10.5% and an inhibition at 10 µg/mL (Platelet [10]) of 83%. For the same compound, the inhibition at 20 µg/mL (Platelet [5]) was 81.6%, the inhibition at 20 µg/mL (Platelet [6]) was 75.9% and the inhibition at 100 µg/mL (Platelet [7]) was 67.3%. For the same compound, the inhibition at 50 µg/mL (Platelet [8]) was 50.4%.
Work on `COc1ccc2cc3c4c(cc(OC)c(OC)c4c2c1)C(=O)N3` [ARISTOLACTAM BIII] yielded an inhibition at 100 µg/mL (Platelet [1]) of 71.9%, an inhibition at 100 µg/mL (Platelet [2]) of 89.3% and an inhibition at 50 µg/mL (Platelet [3]) of 59.1%. The inhibition at 100 µg/mL (Platelet [4]) was 0%, the inhibition at 100 µg/mL (Platelet [7]) was 60.6% and the inhibition at 50 µg/mL (Platelet [8]) was 86.6%.
`COc1c(OC)c(OC)c2c3c(cc4ccc(O)cc42)NC(=O)c13` [STIGMALACTAM] was tested, and the inhibition at 100 µg/mL (Platelet [1]) was 14.2%, the inhibition at 100 µg/mL (Platelet [2]) was 91.9% and the inhibition at 50 µg/mL (Platelet [3]) was 30.8%. For the same compound, the inhibition at 100 µg/mL (Platelet [4]) was 10.1%, the inhibition at 20 µg/mL (Platelet [5]) was 46.4% and the inhibition at 20 µg/mL (Platelet [6]) was 72.9%. It also gave an inhibition at 100 µg/mL (Platelet [7]) of 70.8% and an inhibition at 50 µg/mL (Platelet [8]) of 18.8%.
In the case of `COc1c(O)c(OC)c2c3c(cc4ccccc42)NC(=O)c13` [ARISTOLACTAM F II], the inhibition at 100 µg/mL (Platelet [1]) is reported as 8.5%, the inhibition at 100 µg/mL (Platelet [2]) is reported as 83.9% and the inhibition at 10 µg/mL (Platelet [9]) is reported as 85.4%. The inhibition at 50 µg/mL (Platelet [3]) was 14.5%, the inhibition at 100 µg/mL (Platelet [4]) was 9.7% and the inhibition at 10 µg/mL (Platelet [10]) was 81.7%. The inhibition at 20 µg/mL (Platelet [5]) was 52.5%, the inhibition at 20 µg/mL (Platelet [6]) was 81.7% and the inhibition at 100 µg/mL (Platelet [7]) was 6.7%. The inhibition at 50 µg/mL (Platelet [8]) was 16.5%.
Work on `COc1cccc2c1c(OC)c1c3c(cc(O)c(OC)c32)C(=O)N1` [ENTEROCARPAM I] yielded an inhibition at 100 µg/mL (Platelet [1]) of 2.2%, an inhibition at 100 µg/mL (Platelet [2]) of 86.5% and an inhibition at 10 µg/mL (Platelet [9]) of 83.5%. For the same compound, the inhibition at 50 µg/mL (Platelet [3]) was 25.8%, the inhibition at 100 µg/mL (Platelet [4]) was 43% and the inhibition at 10 µg/mL (Platelet [10]) was 83.7%. For the same compound, the inhibition at 20 µg/mL (Platelet [5]) was 46.4%, the inhibition at 20 µg/mL (Platelet [6]) was 72.9% and the inhibition at 100 µg/mL (Platelet [7]) was 70.8%. It also gave an inhibition at 50 µg/mL (Platelet [8]) of 13.5%.
For `COc1c(O)cc2c3c(cc4ccc(O)cc4c13)NC2=O` [ARISTOLACTAM AIIIA], the inhibition at 100 µg/mL (Platelet [1]) was 56.9%, the inhibition at 100 µg/mL (Platelet [2]) was 90.6% and the inhibition at 100 µg/mL (Platelet [4]) was 39.6%. It also gave an inhibition at 100 µg/mL (Platelet [7]) of 80.7%.

Source: ChEMBL document CHEMBL1155573, “Aristolactams and dioxoaporphines from Fissistigma balansae and Fissistigma oldhamii” (2000)
